System: rats with unilateral 6-hydroxydopamine lesions of the nigrostriatal dopamine pathway
Type: in vivo, rat (male Sprague-Dawley)
Settings: 20 mg/kg, s.c., per one hour interval
Experimental: Selective lesions of the brain dopamine pathway using the neurotoxin 6-hydroxydopamine (6-OHDA) in rats can be used as an experimental approach to Parkinson's disease. Unilateral lesions of the nigrostriatal dopamine pathway induce a postural asymmetry which becomes manifested as rotation when the animals are activated by dopamine releasers or dopamine agonists. When amphetamine and other stimulant drugs that induce pre-synaptic release of dopamine from intact nerve terminals are administered, the rats rotate in a direction ipsilateral to the lesion. In contrast, when the rats are injected with post-synaptic dopamine receptor agonists, such as apomorphine, they turn in a contralateral direction, due to the development of supersensitive dopamine receptors in the lesioned side. Thus, the 6-OHDA model can be used to determine if a suspected dopaminergic agent is active, and to differentiate whether such action is pre- or post-synaptic.
The effects of invention compounds on rotational behavior in 6-hydroxydopamine denervated rats were evaluated using the procedure of Ungerstedt and Arbutknott, Brain Res. 24:485-493 (1970). Male Sprague-Dawley rats (Zivic Miller) weighing 170-200 gm were used in the 6-OHDA procedure. The ascending nigrostriatal dopamine pathway was lesioned by unilateral stereotaxic injection of 6-OHDA (8.0 μg) into one substantia nigra. All injections of 6-OHDA were preceded by desmethylimipramine (25 mg/kg i.p.) and pargyline (75 mg/kg i.p.) approximately 30 minutes prior to undergoing stereotaxic surgery for 6-OHDA infusion into the substantia nigra. After one week of recovery from surgery, the effectiveness of the lesions was verified by noting the response of the animals to apomorphine (0.2 mg/kg, s.c.). Only rats with a minimum rate of 80 contralateral turns per 30 minutes (a sign of more than 80-90% dopamine depletion after a 6-OHDA lesion) were used. Two weeks later, the selected rats were tested with invention and reference compounds using an automated rotometer system to record the number and direction of rotations. In order to distinguish spontaneous (non-specific)rotations from induced rotations (specific to the effect of the drug), each rat was used as its own control, employing the following procedure:
The rat was placed in the rotometer system for acclimatation for 15 minutes, the vehicle administered subcutaneously, the rat's rotations recorded for one hour, then test compound was administered s.c. and rotations again recorded for one hour. The number of ipsilateral rotations induced by vehicle was then compared to the number of ipsilateral rotations induced by test compound. Statistical analysis of the data was carried out using Student's t-test (paired).

| SMILES | Percent change from control (ipsilateral rotations) |
| --- | --- |
| CN1CCCC1c1cncc(-c2ccc(O)c(Cl)c2)c1.O=C(O)/C=C/C(=O)O (stereo not shown) [R^5 = 3-chloro-4-hydroxyphenyl, 5-(4-hydroxy-3-chlorophenyl)-3-(1-methyl-2-pyrrolidinyl)pyridine fumarate] | -40% |
| CN1CCCC1c1cncc(-c2cccc(Cl)c2)c1.O=C(O)/C=C/C(=O)O (stereo not shown) [R^5 = 3-chlorophenyl, 5-(3-Chlorophenyl)-3-(1-methyl-2-pyrrolidinyl) pyridine fumarate] | +62% |
| COc1ccc(-c2cncc(C3CCCN3C)c2)cc1F.O=C(O)/C=C/C(=O)O (stereo not shown) [R^5 = 3-fluoro-4-methoxyphenyl, 5-(3-Fluoro-4-methoxyphenyl)-3-(1-methyl-2-pyrrolidinyl)pyridine fumarate] | -3% |
| C#Cc1cncc(C2CCCN2C)c1.O=C(O)/C=C/C(=O)O (racemic) [R^5 = ethynyl (racemic), 5-Ethynyl-3-(1-methyl-2-pyrrolidinyl)pyridine fumarate] | +406% |

— patent publication US5677459A, “Methods for the preparation of modulators of acetylcholine receptors” (Sibia Neurosciences, Inc., priority 1995, dated 1997)
